Key:
[1] = cited from earlier work
P. paneum = test: accelerated shelf-life testing (ASLT): time of appearance (TOA) and growth pattern of P. paneum on inoculated breadcrumbs; assay type: cell-based, Penicillium paneum; conditions: CalPro 0.3% FWB; tin bread crumb, ±500 spores; Figure 1
Experimental: (§1) Breads were made by mixing the dough ingredients from Table 1. The wt.% for several ingredients are given based on flour weight (Flour Weight Based, FWB). For the prepared recipes the difference with total dry weight is insubstantial. The following breads were prepared: a control without any preservatives, a reference containing 0.3% flour weight based (FWB) calcium propionate (CalPro), and a bread containing 1% chitosan (KitoZyme, Belgium) with number average MW of 15 kDa and degree of deacetylation (DDA) of 70%. The chitosan sample was obtained from cell wall of A. niger (KitoZyme, Belgium). Ingredients were mixed using a spiral mixer for 10 minutes. Afterwards the dough for each trial was divided into three pieces of 520 g, rounded manually, and placed into bread tins. The dough pieces were placed in a proofing cabinet to rise at 40 °C and 80% relative humidity until they reach similar height (fermentation time between 60-70 min). The breads were baked for 22 minutes in a deck oven at 260 (bottom) and 230 (top) °C. [Table 1] Bread recipes
(§2) Following baking, the breads were cooled in a HEPA-filtered chamber for 90 min. One bread was used for pH measurement and two breads were subjected to ASLT.
To perform ASLT, the remaining two breads were sliced to 13 mm slices. […]

A. niger = test: accelerated shelf-life testing (ASLT): time of appearance (TOA) of A. niger on inoculated breadcrumbs; assay type: cell-based, Aspergillus niger
Experimental: as §1, §2
To perform ASLT, the remaining two breads were sliced to 13 mm slices. The crumb (inner part of breads) of three random slices from each bread were cut out using a cookie cutter (3.2 cm diameter) and placed in sterile 6-well plates (2x breads x 3 slices). Two 6-well plates were prepared per bread type. Each bread piece in a 6-well plate was inoculated with 3 aliquots of ±500 spores ([…]) of either A. niger or P. paneum. Therefore, 18 spots of each mould were inoculated per trial (6 bread piece × 3 aliquots). Freeze-dried spores were used in all experiments. The inoculated breads incubated at room temperature of around 21 °C until visible mould appearance. The appearance of the moulds was imaged by taking photographs. The images were inspected visually, and the TOA was defined as mould appearance in hours after mould inoculation. […]

Structure (SMILES)	pKa [1]	increased TOA of P. paneum compared to control bread without preservatives (P. paneum) [%]	effectiveness against A. niger, CalPro compared to chitosan (A. niger; CalPro 0.3% FWB vs chitosan 1% FWB)	increased TOA of A. niger compared to control bread without preservatives (A. niger; CalPro 0.3% FWB, tin bread crumb, ±500 spores, Figure 1A) [%]	increase in TOA of A. niger compared to control without preservative (A. niger; CalPro alone 0.3% FWB, Figure 2 A-B)
C/C=C/C=C/C(=O)O [sorbic acid]	about 4.76	–	–	–	–
CC(O)C(=O)O (stereo not drawn) [lactic acid]	about 3.85	–	–	–	–
CCC(=O)[O-].CCC(=O)[O-].[Ca+2] [CalPro, calcium propionate]	–	17	more effective against A. niger	80	approximately 50%
